Source: paper PMC10046961, “High-Throughput Screening Assay for Detecting Drug-Induced Changes in Synchronized Neuronal Oscillations and Potential Seizure Risk Based on Ca^2+ Fluorescence Measurements in Human Induced Pluripotent Stem Cell (hiPSC)-Derived Neuronal 2D and 3D Cultures” (Cells, 2023)
Read-outs that look alike come from different tables or passages of the source. Marks after values point to notes of the source that are not given here.

Assays:
[1] = ref PharmaPendium, cited from earlier work
[2] = tested on: hiPSC-derived neurons co-cultured with human primary astrocytes in 2D; assay: Ca2+ transient oscillation assay (FDSS), 2D co-culture; type: cell-based; conditions: for effect on peak number / Ca2+ neuronal oscillations, in words: 2D format; for activation at 3.7 µM / activation at 11.11 µM / activation at 33.33 µM / activation at 100 µM / activation at 300 µM: Homo sapiens, 1 h, 60 min
How it was run: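 hiPSC-derived excitatory neurons (CW50065, Quick-Neuron EX-SeV) co-cultured with human primary astrocytes at 4:1 (10,000:2500 cells per well). Cal-520-loaded cells in HBSS with 2 mM CaCl2 and 10 mM HEPES were pretreated with 0.04% DMSO.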

[3] = tested on: hiPSC-derived neurons co-cultured with human primary astrocytes in 3D; assay: Ca2+ transient oscillation assay (FDSS), 3D spheroids; type: cell-based; conditions: 60 min
How it was run: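 Fura-2 fluorescence was read twice for 20 min each: a baseline 10 min after 0.04% DMSO, and again 60 min after compound addition at nominal final concentration. The 3D co-cultures (1:1 hiPSC neurons from a donor and human astrocytes, 8000 each) matured 5 weeks in BrainPhys medium after a 1-week differentiation.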

[4] = Table 1, peak plasma concentration in men, free therapeutic Cmax
[5] = Table 2, highest plasma concentration in humans after the therapeutic dose
[6] = read-out: Area under the curve - 2D Mean
[7] = read-out: Peak amplitude - 2D Mean
[8] = read-out: Peak-to-peak interval - 2D Mean

Compound: NCCc1c[nH]c2ccc(O)cc12 [Serotonin]
- Free Cmax [1, 4]: 1 to 2 µM
- Free Cmax [1, 5]: 1 to 2 µM
- effect on peak number / Ca2+ neuronal oscillations, in words [2]: significantly reduced peak number
- activation at 3.7 µM [2, 6]: 12.8%
- activation at 3.7 µM ([2]; read-out: Peak Number—2D Mean): -23.4%
- activation at 3.7 µM [2, 7]: -4.9%
- activation at 3.7 µM ([2]; read-out: Peak width - 2D Mean): 17.3%
- activation at 3.7 µM [2, 8]: 28.4%
- activation at 11.11 µM [2, 6]: 11.1%
- activation at 11.11 µM ([2]; read-out: Peak Number—2D Mean): -1.7%
- activation at 11.11 µM [2, 7]: -13.7%
- activation at 11.11 µM ([2]; read-out: Peak width - 2D Mean): 18.3%
- activation at 11.11 µM [2, 8]: 65.8%
- activation at 33.33 µM [2, 6]: -8.9%
- activation at 33.33 µM ([2]; read-out: Peak Number—2D Mean): -43.8%
- activation at 33.33 µM [2, 7]: -27.1%
- activation at 33.33 µM ([2]; read-out: Peak width - 2D Mean): -1.4%
- activation at 33.33 µM [2, 8]: 36.4%
- activation at 100 µM [2, 6]: -2.6%
- activation at 100 µM ([2]; read-out: Peak Number—2D Mean): -45.8%
- activation at 100 µM [2, 7]: -16.6%
- activation at 100 µM ([2]; read-out: Peak width - 2D Mean): 11.4%
- activation at 100 µM [2, 8]: 55.3%
- Area under the curve - 3D Mean ([3]; 3.7 µM): −19.4 % change from baseline
- Peak Number—3D Mean ([3]; 3.7 µM): −70.7 ** % change from baseline
- Peak amplitude - 3D Mean ([3]; 3.7 µM): −4.3 % change from baseline
- Peak width - 3D Mean ([3]; 3.7 µM): −54.0 % change from baseline
- Peak-to-peak interval - 3D Mean ([3]; 3.7 µM): −58.0 % change from baseline
- Area under the curve - 3D Mean ([3]; 11.11 µM): 19.8 % change from baseline
- Peak Number—3D Mean ([3]; 11.11 µM): −69.1 ** % change from baseline
- Peak amplitude - 3D Mean ([3]; 11.11 µM): 33.7 % change from baseline
- Peak width - 3D Mean ([3]; 11.11 µM): −31.8 % change from baseline
- Peak-to-peak interval - 3D Mean ([3]; 11.11 µM): −37.9 % change from baseline
- Area under the curve - 3D Mean ([3]; 33.33 µM): −21.3 % change from baseline
- Peak Number—3D Mean ([3]; 33.33 µM): −82.1 ** % change from baseline
- Peak amplitude - 3D Mean ([3]; 33.33 µM): −3.1 % change from baseline
- Peak width - 3D Mean ([3]; 33.33 µM): −52.3 % change from baseline
- Peak-to-peak interval - 3D Mean ([3]; 33.33 µM): 29.2 % change from baseline
- Area under the curve - 3D Mean ([3]; 100 µM): −21.1 % change from baseline
- Peak Number—3D Mean ([3]; 100 µM): −80.3 ** % change from baseline
- Peak amplitude - 3D Mean ([3]; 100 µM): −10.3 % change from baseline
- Peak width - 3D Mean ([3]; 100 µM): −55.4 % change from baseline
- Peak-to-peak interval - 3D Mean ([3]; 100 µM): −82.0 % change from baseline

Compound: Cn1c(=O)c2[nH]cnc2n(C)c1=O [Theophylline]
- Free Cmax [1, 4]: 8 to 15 µM
- Free Cmax [1, 5]: 8 to 15 µM
- effect on peak number / Ca2+ neuronal oscillations, in words [2]: significantly increased peak number
- activation at 11.11 µM [2, 6]: 32.3%
- activation at 11.11 µM ([2]; read-out: Peak Number—2D Mean): -5.7%
- activation at 11.11 µM [2, 7]: 12.7%
- activation at 11.11 µM ([2]; read-out: Peak width - 2D Mean): 22.8%
- activation at 11.11 µM [2, 8]: 24.3%
- activation at 33.33 µM [2, 6]: 41.7%
- activation at 33.33 µM ([2]; read-out: Peak Number—2D Mean): 24.7%
- activation at 33.33 µM [2, 7]: 15.3%
- activation at 33.33 µM ([2]; read-out: Peak width - 2D Mean): 31.2%
- activation at 33.33 µM [2, 8]: -5.2%
- activation at 100 µM [2, 6]: 29.7%
- activation at 100 µM ([2]; read-out: Peak Number—2D Mean): 39.3%
- activation at 100 µM [2, 7]: 10%
- activation at 100 µM ([2]; read-out: Peak width - 2D Mean): 24.3%
- activation at 100 µM [2, 8]: -26.3%
- activation at 300 µM [2, 6]: 72.8%
- activation at 300 µM ([2]; read-out: Peak Number—2D Mean): 118%
- activation at 300 µM [2, 7]: 6%
- activation at 300 µM ([2]; read-out: Peak width - 2D Mean): 113%
- activation at 300 µM [2, 8]: -46.8%
- Area under the curve - 3D Mean ([3]; 11.11 µM): 156.1 % change from baseline
- Peak Number—3D Mean ([3]; 11.11 µM): 2.0 % change from baseline
- Peak amplitude - 3D Mean ([3]; 11.11 µM): 121.2 % change from baseline
- Peak width - 3D Mean ([3]; 11.11 µM): 11.1 % change from baseline
- Peak-to-peak interval - 3D Mean ([3]; 11.11 µM): −4.0 % change from baseline
- Area under the curve - 3D Mean ([3]; 33.33 µM): 171.1 % change from baseline
- Peak Number—3D Mean ([3]; 33.33 µM): 53.5 * % change from baseline
- Peak amplitude - 3D Mean ([3]; 33.33 µM): 142.1 % change from baseline
- Peak width - 3D Mean ([3]; 33.33 µM): 12.2 % change from baseline
- Peak-to-peak interval - 3D Mean ([3]; 33.33 µM): −21.2 % change from baseline
- Area under the curve - 3D Mean ([3]; 100 µM): 148.8 % change from baseline
- Peak Number—3D Mean ([3]; 100 µM): 78.1 * % change from baseline
- Peak amplitude - 3D Mean ([3]; 100 µM): 99.6 % change from baseline
- Peak width - 3D Mean ([3]; 100 µM): 21.3 % change from baseline
- Peak-to-peak interval - 3D Mean ([3]; 100 µM): −37.1 % change from baseline
- Area under the curve - 3D Mean ([3]; 300 µM): 134.2 % change from baseline
- Peak Number—3D Mean ([3]; 300 µM): 114.2 * % change from baseline
- Peak amplitude - 3D Mean ([3]; 300 µM): 89.4 % change from baseline
- Peak width - 3D Mean ([3]; 300 µM): 29.3 % change from baseline
- Peak-to-peak interval - 3D Mean ([3]; 300 µM): −45.7 % change from baseline
